Experimental findings from patent US20250025443A1, “COMPOUNDS AND METHODS FOR TREATING CORONA VIRUSES” (CLEAR CREEK BIO, INC., priority 2021, published 2025) are described below.

pIC50: −log10 of the molar value. Read-outs that look alike come from different tables or passages of the source.

The target of this test is SARS-CoV-2 Papain-Like Protease (PLpro) (Severe acute respiratory syndrome coronavirus 2 (2019-nCoV) (SARS-CoV-2), UniProt P0DTD1). Kind of test: biochemical.
Where [1] appears, read: SARS-CoV-2 PLpro enzymatic fluorescence assay, read-out: PLpro IC50.
Setting [2] is: PLpro enzymatic fluorescence assay, class symbols, read-out: PLpro IC50.

For `CN(C)CCOc1ccc(Br)c(C(=O)NC2(c3cccc4ccccc34)CC2)c1` [Compound 269, 2-Bromo-5-(2-(dimethylamino)ethoxy)-N-(1-(naphthalen-1-yl)cyclopropyl)benzamide], the pIC50 under setting [1] is 6.00 to 7.00. In the case of `Cc1ccc(OCCN(C)C)cc1C(=O)NC1(c2cccc(Oc3ccccc3)c2)CC1` [Compound 270, 5-(2-(Dimethylamino)ethoxy)-2-methyl-N-(1-(3-phenoxyphenyl)cyclopropyl)benzamide], under setting [1], the pIC50 is below 5.30. The same measure, in the same setting: as for `COc1ccc(C2(NC(=O)c3cc(OCCN(C)C)ccc3C)CC2)cc1` [Compound 271, 5-(2-(Dimethylamino)ethoxy)-N-(1-(4-methoxyphenyl)cyclopropyl)-2-methylbenzamide], the figure is below 5.30. Turning to `Cc1ccc(OCCN(C)C)cc1C(=O)NC1(c2ccccc2F)CC1` [Compound 272, 5-(2-(Dimethylamino)ethoxy)-N-(1-(2-fluorophenyl)cyclopropyl)-2-methylbenzamide], the negative logarithm of the IC50 (pIC50) under setting [1] is below 5.30. Take `Cc1cc2cc(C(C)N)[nH]c2cc1C(=O)NC1(c2cccc3ccccc23)CC1` (stereo not drawn) [Compound 273, 2-(1-Aminoethyl)-5-methyl-N-(1-(naphthalen-1-yl)cyclopropyl)-1H-indole-6-carboxamide]: under setting [1], the pIC50 is above 7.00.

As to `Cc1ccc(OCC2CCN2)cc1C(=O)NC1(c2cccc3ccccc23)CC1` (stereo not drawn) [Compound 274, 5-(Azetidin-2-ylmethoxy)-2-methyl-N-(1-(naphthalen-1-yl)cyclopropyl)benzamide], the pIC50 under setting [1] is above 7.00. Take `Cc1ncc(OCCN(C)C)cc1C(=O)NC1(c2cccc3ccccc23)CC1` [Compound 275, 5-(2-(Dimethylamino)ethoxy)-2-methyl-N-(1-(naphthalen-1-yl)cyclopropyl)nicotinamide]: the pIC50 under setting [1] was 5.30 to 6.00.

As to `Cc1ccc(OCCN(C)C)cc1C(=O)NC1(c2cccc(C3CCCC3)c2)CC1` [Compound 276, N-(1-(3-Cyclopentylphenyl)cyclopropyl)-5-(2-(dimethylamino)ethoxy)-2-methylbenzamide], under setting [1], the pIC50 was below 5.30. For `COc1ccccc1C1(NC(=O)c2cc(OCCN(C)C)ccc2C)CC1` [Compound 277, 5-(2-(Dimethylamino)ethoxy)-N-(1-(2-methoxyphenyl)cyclopropyl)-2-methylbenzamide], the pIC50 under setting [2] was below 5.30.

In the case of `COc1cccc(C2(NC(=O)c3cc(OCCN(C)C)ccc3C)CC2)c1` [Compound 278, 5-(2-(Dimethylamino)ethoxy)-N-(1-(3-methoxyphenyl)cyclopropyl)-2-methylbenzamide], under setting [2], the pIC50 is below 5.30.

As for `Cc1ccc(OCCN(C)C)cc1C(=O)NC1(c2ccc(Oc3ccccc3)cc2)CC1` [Compound 279, 5-(2-(Dimethylamino)ethoxy)-2-methyl-N-(1-(4-phenoxyphenyl)cyclopropyl)benzamide], under setting [1], the pIC50 was 5.30 to 6.00. For `Cc1cc2nc(CN)[nH]c2cc1C(=O)NC1(c2cccc3ccccc23)CC1` [Compound 280, 2-(Aminomethyl)-5-methyl-N-(1-(naphthalen-1-yl)cyclopropyl)-1H-benzo[d]imidazole-6-carboxamide], the negative-log IC50 (pIC50) under setting [1] was 6.00 to 7.00.

Regarding `Cc1cc2cc(CN)[nH]c2cc1C(=O)NC(C)(C)c1cccc2ccccc12` [Compound 281], the pIC50 under setting [1] is below 5.30. As for `Cc1ccc(OCCN(C)C)cc1C(=O)NC1(c2ccccc2C)CC1` [Compound 282, 5-(2-(Dimethylamino)ethoxy)-2-methyl-N-(1-(o-tolyl)cyclopropyl)benzamide], under setting [1], the pIC50 is 5.30 to 6.00. With `Cc1ccc(OCC2CCCN2C)cc1C(=O)NC1(c2cccc3ccccc23)CC1` (stereo not drawn) [Compound 283, 2-Methyl-5-((1-methylpyrrolidin-2-yl)methoxy)-N-(1-(naphthalen-1-yl)cyclopropyl)benzamide], the pIC50 under setting [1] was above 7.00. For the molecule `Cc1ccc(OCCN2CCC(F)(F)CC2)cc1C(=O)NC1(c2cccc3ccccc23)CC1` [Compound 284, 5-(2-(4,4-Difluoropiperidin-1-yl)ethoxy)-2-methyl-N-(1-(naphthalen-1-yl)cyclopropyl)benzamide], the pIC50 under setting [1] was 6.00 to 7.00. Still for that read-out and setting: as for `Cc1ccc(OCC(N)=O)cc1C(=O)NC1(c2cccc3ccccc23)CC1` [Compound 285, 5-(2-Amino-2-oxoethoxy)-2-methyl-N-(1-(naphthalen-1-yl)cyclopropyl)benzamide], the figure is 6.00 to 7.00; as for `Cc1ccc(OCC2COCCN2)cc1C(=O)NC1(c2cccc3ccccc23)CC1` (stereo not drawn) [Compound 286, 2-Methyl-5-(morpholin-3-ylmethoxy)-N-(1-(naphthalen-1-yl)cyclopropyl)benzamide], above 7.00. As to `Cc1ccc(OCC2CCCCN2C)cc1C(=O)NC1(c2cccc3ccccc23)CC1` (stereo not drawn) [Compound 288, 2-Methyl-5-((1-methylpiperidin-2-yl)methoxy)-N-(1-(naphthalen-1-yl)cyclopropyl)benzamide], the pIC50 under setting [1] was 6.00 to 7.00.

Regarding `Cc1ccc(OC2CCCN(C)C2)cc1C(=O)NC1(c2cccc3ccccc23)CC1` (stereo not drawn) [Compound 289, 2-Methyl-5-((1-methylpiperidin-3-yl)oxy)-N-(1-(naphthalen-1-yl)cyclopropyl)benzamide], the pIC50 under setting [1] is 6.00 to 7.00.

Consider `Cc1cc2ccn(C3CN(C)C3)c2cc1C(=O)NC1(c2cccc3ccccc23)CC1` [Compound 290, 5-Methyl-1-(1-methylazetidin-3-yl)-N-(1-(naphthalen-1-yl)cyclopropyl)-1H-indole-6-carboxamide], for which the pIC50 under setting [1] was above 7.00. Consider `Cc1ccc(OCCN(C)C)cc1C(=O)NC1(c2cccc(-c3ccccc3)c2)CC1` [Compound 291, N-(1-([1,1′-Biphenyl]-3-yl)cyclopropyl)-5-(2-(dimethylamino)ethoxy)-2-methylbenzamide], for which the pIC50 under setting [1] is 6.00 to 7.00. Take `Cc1cc2c(CCN)c[nH]c2cc1C(=O)NC1(c2cccc3ccccc23)CC1` [Compound 292, 3-(2-Aminoethyl)-5-methyl-N-(1-(naphthalen-1-yl)cyclopropyl)-1H-indole-6-carboxamide]: the pIC50 (PLpro IC50, SARS-CoV-2 PLpro enzymatic fluorescence assay) is 6.00 to 7.00. As to `Cc1ccc(OC2CCCCN(C)C2)cc1C(=O)NC1(c2cccc3ccccc23)CC1` (stereo not drawn) [Compound 293, 2-methyl-5-((1-methylazepan-3-yl)oxy)-N-(1-(naphthalen-1-yl)cyclopropyl)benzamide], the pIC50 under setting [1] is 6.00 to 7.00. Take `Cc1ccc(OCCN(C)C)cc1C(=O)NC1(c2ccc(O)cc2)CC1` [Compound 294, 5-(2-(Dimethylamino)ethoxy)-N-(1-(4-hydroxyphenyl)cyclopropyl)-2-methylbenzamide]: the pIC50 under setting [1] is below 5.30. For the molecule `Cc1cc2ccn(CC3COC3)c2cc1C(=O)NC1(c2cccc3ccccc23)CC1` [Compound 295, 5-Methyl-N-(1-(naphthalen-1-yl)cyclopropyl)-1-(oxetan-3-ylmethyl)-1H-indole-6-carboxamide], the pIC50 under setting [1] is 6.00 to 7.00. In the case of `Cc1cc2ccn(C3CCC3)c2cc1C(=O)NC1(c2cccc3ccccc23)CC1` [Compound 296, 1-Cyclobutyl-5-methyl-N-(1-(naphthalen-1-yl)cyclopropyl)-1H-indole-6-carboxamide], the negative-log IC50 (pIC50) under setting [1] is 6.00 to 7.00. For `Cc1cc2c(cc1C(=O)NC1(c3cccc4ccccc34)CC1)NCCN2` [Compound 297, 7-Methyl-N-(1-(naphthalen-1-yl)cyclopropyl)-1,2,3,4-tetrahydroquinoxaline-6-carboxamide], under setting [1], the pIC50 is 6.00 to 7.00. As for `Cc1ccc(OCCN(C)C)cc1C(=O)NC1(c2ccccc2Oc2ccccc2)CC1` [Compound 298, 5-(2-(Dimethylamino)ethoxy)-2-methyl-N-(1-(2-phenoxyphenyl)cyclopropyl)benzamide], the pIC50 under setting [1] was 5.30 to 6.00. Regarding `Cc1ccc(OCCN(C)C)cc1C(=O)NC1(c2cccc3cnccc23)CC1` [Compound 299, 5-(2-(Dimethylamino)ethoxy)-N-(1-(isoquinolin-5-yl)cyclopropyl)-2-methylbenzamide], the pIC50 under setting [1] was above 7.00. On to `Cc1ccc(OCCN2CC(F)C2)cc1C(=O)NC1(c2cccc3ccccc23)CC1` [Compound 300, 5-(2-(3-Fluoroazetidin-1-yl)ethoxy)-2-methyl-N-(1-(naphthalen-1-yl)cyclopropyl)benzamide], for which, under setting [1], the pIC50 was above 7.00.

As for `Cc1ccc(OCCN(C)C)cc1C(=O)NC1(c2cccc3ncccc23)CC1` [Compound 301, 5-(2-(Dimethylamino)ethoxy)-2-methyl-N-(1-(quinolin-5-yl)cyclopropyl)benzamide], the pIC50 under setting [1] was above 7.00. For `Cc1ccc(OCC2COCCN2C)cc1C(=O)NC1(c2cccc3ccccc23)CC1` (stereo not drawn) [Compound 302, 2-Methyl-5-((4-methylmorpholin-3-yl)methoxy)-N-(1-(naphthalen-1-yl)cyclopropyl)benzamide], the pIC50 under setting [1] was 6.00 to 7.00. On the same count and under the same terms, as for `COc1ccc(OCCN(C)C)cc1C(=O)NC1(c2cccc3ccccc23)CC1` [Compound 303, 5-(2-(Dimethylamino)ethoxy)-2-methoxy-N-(1-(naphthalen-1-yl)cyclopropyl)benzamide], the figure is below 5.30. Take `Cc1cc2cnn(C3CNC3)c2cc1C(=O)NC1(c2cccc3ccccc23)CC1` [Compound 304, 1-(Azetidin-3-yl)-5-methyl-N-(1-(naphthalen-1-yl)cyclopropyl)-1H-indazole-6-carboxamide]: under setting [1], the pIC50 was above 7.00. With `Cc1cc2cn(C3CNC3)nc2cc1C(=O)NC1(c2cccc3ccccc23)CC1` [Compound 305, 2-(Azetidin-3-yl)-5-methyl-N-(1-(naphthalen-1-yl)cyclopropyl)-2H-indazole-6-carboxamide], the pIC50 under setting [1] is 6.00 to 7.00. `Cc1ccc(OCCN(C)C)cc1C(=O)NC1(c2cccc(O)c2)CC1` [Compound 306, 5-(2-(Dimethylamino)ethoxy)-N-(1-(3-hydroxyphenyl)cyclopropyl)-2-methylbenzamide]: under setting [2], the pIC50 was below 5.30. Take `Cc1ccc(OCCN(C)C)cc1C(=O)NC1(c2ccc(OCc3ccccc3)cc2)CC1` [Compound 307, N-(1-(4-(Benzyloxy)phenyl)cyclopropyl)-5-(2-(dimethylamino)ethoxy)-2-methylbenzamide]: the pIC50 under setting [1] is below 5.30. As for `Cc1ccc(OCCN(C)C)cc1C(=O)NC1(c2cccc(OCc3ccccc3)c2)CC1` [Compound 308, N-(1-(3-(Benzyloxy)phenyl)cyclopropyl)-5-(2-(dimethylamino)ethoxy)-2-methylbenzamide], under setting [1], the pIC50 was below 5.30.
